Test results from patent US8354426B2, “Naphthyridine derivative monohydrate and method for producing the same” (Toyama Chemical Co., Ltd., priority 2007, dated 2013).
Structures can show the parent of a compound that is named as a salt.

Experiments:
Hygroscopicity test = type: physicochemical; conditions: stored three weeks, room temperature, relative humidity 97%
Source text: The compound of the present invention and the comparative compound were stored for three weeks under the conditions of room temperature and the relative humidity of 97%. […] On the other hand, the comparative compound had deliquesced.

E. faecalis D-2648 = experiment: Susceptibility test (MIC, microtiter broth dilution); type: cell-based; conditions: Enterococcus faecalis, D2648
Experimental: (§1) The compound of the present invention was dissolved in dimethyl sulfoxide and measured for the antibacterial activity (MIC) by a microtiter broth dilution method recommended by Japanese Society of Chemotherapy.
(§2) Staphylococcus aureus (S. aureus Smith, FDA209P, F-3095), Enterococcus faecalis (E. faecalis D-2648) and Escherichia coli (E. coli NIHJ) were used as the bacteria.
(§3) The bacterial cells, grown overnight on a Mueller-Hinton agar: MHA plate at 35° C., were suspended in a sterilized physiological saline so as to be a 0.5 McFarland equivalent standard. The cell suspension was diluted ten-fold to prepare an inoculum. Approximately 0.005 mL of the inoculum was inoculated into a cation-adjusted Mueller-Hinton broth (CAMHB), 100 μL/well containing the test substance and allowed to grow overnight at 35° C. The lowest concentration of the test substance at which no bacterial growth was observed by the naked eye was determined as MIC.

S. aureus Smith = experiment: as above; type: cell-based; conditions: Staphylococcus aureus, CAMHB, overnight at 35° C.
Experimental: as §1, §2, §3

S. aureus F-3095 = experiment: as above; type: cell-based; conditions: Staphylococcus aureus, F3095
Experimental: as §1, §2, §3

E. coli NIHJ = experiment: as above; type: cell-based; conditions: Escherichia coli, CAMHB, overnight at 35° C.
Experimental: as §1, §2, §3

S. aureus FDA209P = experiment: as above; type: cell-based; conditions: Staphylococcus aureus, CAMHB, overnight at 35° C.
Experimental: as §1, §2, §3

[1] = Solubility in phosphate buffer solution; type: physicochemical; conditions: aqueous buffer, thermodynamic from solid; 0.2 mol/L phosphate buffer solution (pH 6.5), 25° C., shaken 48 hours

SMILES	Appearance after storage (hygroscopicity / deliquescence) (Hygroscopicity test; trihydrochloride)	Appearance after storage (hygroscopicity / deliquescence) (Hygroscopicity test; monohydrate)	MIC (E. faecalis D-2648) [mg/L]	MIC (S. aureus Smith) [mg/L]	MIC (S. aureus F-3095) [mg/L]	MIC (E. coli NIHJ) [mg/L]	MIC (S. aureus FDA209P) [mg/L]	solubility at 48 h [1] [mg/mL]
O=c1ccc2ncc(F)cc2n1CCN1CCC(NCc2cc3c(cn2)OCCO3)CC1 [Comparative Example 1, 1-(2-(4-((2,3-dihydro(1,4)dioxino(2,3-c)pyridin-7-ylmethyl)amino)piperidin-1-yl)ethyl)-7-fluoro-1,5-naphthyridin-2(1H)-one trihydrochloride, reference compound]	deliquesced							
O=c1ccc2ncc(F)cc2n1CCN1CCC(NCc2cc3c(cn2)OCCO3)CC1 [Example 16, 1-(2-(4-((2,3-dihydro(1,4)dioxino(2,3-c)pyridin-7-ylmethyl)amino)piperidin-1-yl)ethyl)-7-fluoro-1,5-naphthyridin-2(1H)-one monohydrate]		powder with no apparent change	0.25	0.0625	0.0313	0.125	0.0313	21.2
